Laboratory results taken from ChEMBL document CHEMBL5674860, “Optimized Dual-Glo Assay to identify co-culture-induced drug vulnerabilities in 3D CRC models” (2024).

Tests used:
Assay type in all cases: functional, Homo sapiens
Parameters in all cases: dose or concentration left out as unconfirmed
Colon cancer organoid [1] = assay: Optimized Dual-Glo assay to identify co-culture induced drug vulnerabilities using donated chemical probes and chemogenomics kinase set in O14 CRC organoid and F14 CAF mono and co-culture. […] Cell viability is reported both mono and co-culture models.
Colon cancer organoid [2] = assay: Optimized Dual-Glo assay to identify co-culture induced drug vulnerabilities using donated chemical probes and chemogenomics kinase set in O20 CRC organoid and F20 CAF mono and co-culture. […] Cell viability is reported both mono and co-culture models.
Colon cancer organoid [3] = assay: Optimized Dual-Glo assay to identify co-culture induced drug vulnerabilities using donated chemical probes and chemogenomics kinase set in O06 CRC organoid and F06 CAF mono and co-culture. […] Cell viability is reported both mono and co-culture models.
[4] = Culture type Co-Culture, Transduced with Lucferase2-P2A-EGFP lentivirus
[5] = Culture type Co-Culture, Transduced with Renilla-dsRed lentivirus
[6] = Culture type Mono-Culture, Transduced with Lucferase2-P2A-EGFP lentivirus
[7] = Culture type Mono-Culture, Transduced with Renilla-dsRed lentivirus

SMILES | Cell Viability (Colon cancer organoid [1]; [4]) | Cell Viability (Colon cancer organoid [1]; [5]) | Cell Viability (Colon cancer organoid [1]; [6]) | Cell Viability (Colon cancer organoid [1]; [7]) | Cell Viability (Colon cancer organoid [2]; [4]) | Cell Viability (Colon cancer organoid [2]; [5]) | Cell Viability (Colon cancer organoid [2]; [6]) | Cell Viability (Colon cancer organoid [2]; [7]) | Cell Viability (Colon cancer organoid [3]; [4]) | Cell Viability (Colon cancer organoid [3]; [5]) | Cell Viability (Colon cancer organoid [3]; [6]) | Cell Viability (Colon cancer organoid [3]; [7])
CNC(=O)Nc1ccc(-c2nc(N3CC4CCC(C3)O4)c3cnn(C4CCC5(CC4)OCCO5)c3n2)cc1 | 9.5061% | 63.2179% | 14.6121% | 40.9027% | 5.834% | 97.6391% | 5.978% | 53.3135% | 4.885% | 48.532% | 5.396% | 31.9288%
Cn1c(=O)[nH]c2cc(N3C(=O)c4cccc5c(CCCO)ccc(c45)C3=O)ccc21 | 89.1085% | 114.749% | 98.1543% | 99.5703% | 125.633% | 89.8045% | 109.771% | 112.055% | 115.119% | 110.623% | 83.0583% | 109.161%
COc1cccc(CNC(=O)c2nc3scc(CN(C)Cc4ccccc4)c3c(=O)[nH]2)c1 [T-26f] | 86.5179% | 95.8142% | 82.3734% | 95.7877% | 156.545% | 109.586% | 116.769% | 103.534% | 114.676% | 151.389% | 102.721% | 101.465%
CN(C)C(=O)Cn1cc(-c2nc(C3(c4ccc(-c5cnc(N)nc5)cc4)CC3)no2)cn1 [BI 0153] | 85.1631% | 102.426% | 124.477% | 95.7431% | 119.435% | 91.9766% | 120.102% | 113.624% | 114.895% | 116.335% | 110.704% | 85.1331%
CN1CCN(Cc2ccc(Nc3ncc(Cl)c(Nc4ccccc4S(=O)(=O)N(C)C)n3)cc2)CC1 [DUBERMATINIB] | 0.6117% | 1.021% | 1.267% | 1.499% | 1.045% | 16.1981% | 1.218% | 12.0094% | 0.5937% | 0.7151% | 0.6913% | 2.891%
Cc1nc(C2CCN(C(=O)c3ccc(OC(F)(F)F)cc3N)CC2)c2ncc(N3CCN(C)CC3)cc2n1 [BAY-693] | 86.7565% | 92.2226% | 129.525% | 92.5719% | 93.857% | 129.276% | 111.777% | 88.9169% | 114.208% | 166.908% | 75.386% | 110.093%
O=C1NC(c2ccccn2)Sc2ccccc21 (stereo unspecified) [BTZO-4] | 61.6346% | 107.214% | 121.016% | 104.244% | 109.35% | 85.8309% | 124.511% | 93.402% | 120.289% | 168.274% | 120.842% | 96.0026%
Cn1c(C2(NC(=O)c3ccc4c(C5CCCC5)c(-c5ncc(Br)cn5)n(C)c4c3)CCC2)nc2ccc(/C=C/C(=O)O)cc21 [DELEOBUVIR] | 94.147% | 102.969% | 81.1663% | 89.5103% | 79.9036% | 130.288% | 108.218% | 110.732% | 116.632% | 84.3073% | 123.499% | 101.583%
CN([C@@H]1CCc2c(CC(=O)O)c3cc(S(C)(=O)=O)ccc3n2C1)S(=O)(=O)c1ccc(F)cc1 [CRTH2-negative-control] | 89.9276% | 115.062% | 117.685% | 97.6178% | 107.561% | 126.69% | 138.147% | 108.987% | 107.688% | 114.368% | 103.342% | 104.475%
Cc1sc2c(c1C)C(c1ccc(Cl)cc1)=N[C@@H](CC(=O)NCCCCCCCCNC(=O)COc1cccc3c1C(=O)N(C1CCC(=O)NC1=O)C3=O)c1nnc(C)n1-2 (stereo partly specified) | 2.938% | 15.8723% | 4.49% | 21.4216% | 2.002% | 74.9854% | 1.636% | 22.3036% | 5.4511% | 19.3995% | 5.5885% | 11.9931%
CC[C@@H]1C(=O)N(C)c2cnc(Nc3ccc(C(=O)NC4CCN(C)CC4)cc3OC)nc2N1C1CCCC1 [BI-2536] | 6.08% | 320.789% | 25.6478% | 192.03% | 3.7112% | 168.723% | 5.1365% | 106.916% | 3.341% | 324.743% | 5.694% | 205.81%
CC(C)(C#Cc1ccc(NC(=O)COc2ccccc2C(=O)c2ccccc2)c(Cl)c1)C(=O)O [BI 2439] | 91.5107% | 105.147% | 118.998% | 103.818% | 147.968% | 100.148% | 97.854% | 121.686% | 98.7582% | 98.9732% | 147.342% | 109.263%
O=C(NNS(=O)(=O)c1ccccc1)c1cc(-c2ccnnc2)ccc1F [WM-2474] | 77.1469% | 98.8333% | 101.234% | 91.9977% | 104.784% | 126.08% | 94.4259% | 109.751% | 92.1572% | 93.3483% | 72.4696% | 112.209%
